Test results: patent publication US20220151962A1, “NOVEL INHIBITORS OF HISTONE DEACETYLASE 10” (Deutsches Krebsforschungszentrum, priority 2019, published 2022)
Values joined by “and” are separate entries in the source; they are usually repeats but may differ in a detail not shown here. Identical values can stand only once. Like-named read-outs stand apart in the source and are kept apart here.

Experiments:
[1] = molecular target: T1, HDAC6 (Homo sapiens, UniProt Q9UBN7); test: HDAC6 (ZMAL) fluorogenic activity assay; format: biochemical; conditions: for inhibition at 1 µM / inhibition at 10 µM: read-out: HDAC6 (ZMAL) percent enzyme inhibition
T1 construct: purchased BPS Bioscience 50006
T1 sequence (Q9UBN7 1-1215): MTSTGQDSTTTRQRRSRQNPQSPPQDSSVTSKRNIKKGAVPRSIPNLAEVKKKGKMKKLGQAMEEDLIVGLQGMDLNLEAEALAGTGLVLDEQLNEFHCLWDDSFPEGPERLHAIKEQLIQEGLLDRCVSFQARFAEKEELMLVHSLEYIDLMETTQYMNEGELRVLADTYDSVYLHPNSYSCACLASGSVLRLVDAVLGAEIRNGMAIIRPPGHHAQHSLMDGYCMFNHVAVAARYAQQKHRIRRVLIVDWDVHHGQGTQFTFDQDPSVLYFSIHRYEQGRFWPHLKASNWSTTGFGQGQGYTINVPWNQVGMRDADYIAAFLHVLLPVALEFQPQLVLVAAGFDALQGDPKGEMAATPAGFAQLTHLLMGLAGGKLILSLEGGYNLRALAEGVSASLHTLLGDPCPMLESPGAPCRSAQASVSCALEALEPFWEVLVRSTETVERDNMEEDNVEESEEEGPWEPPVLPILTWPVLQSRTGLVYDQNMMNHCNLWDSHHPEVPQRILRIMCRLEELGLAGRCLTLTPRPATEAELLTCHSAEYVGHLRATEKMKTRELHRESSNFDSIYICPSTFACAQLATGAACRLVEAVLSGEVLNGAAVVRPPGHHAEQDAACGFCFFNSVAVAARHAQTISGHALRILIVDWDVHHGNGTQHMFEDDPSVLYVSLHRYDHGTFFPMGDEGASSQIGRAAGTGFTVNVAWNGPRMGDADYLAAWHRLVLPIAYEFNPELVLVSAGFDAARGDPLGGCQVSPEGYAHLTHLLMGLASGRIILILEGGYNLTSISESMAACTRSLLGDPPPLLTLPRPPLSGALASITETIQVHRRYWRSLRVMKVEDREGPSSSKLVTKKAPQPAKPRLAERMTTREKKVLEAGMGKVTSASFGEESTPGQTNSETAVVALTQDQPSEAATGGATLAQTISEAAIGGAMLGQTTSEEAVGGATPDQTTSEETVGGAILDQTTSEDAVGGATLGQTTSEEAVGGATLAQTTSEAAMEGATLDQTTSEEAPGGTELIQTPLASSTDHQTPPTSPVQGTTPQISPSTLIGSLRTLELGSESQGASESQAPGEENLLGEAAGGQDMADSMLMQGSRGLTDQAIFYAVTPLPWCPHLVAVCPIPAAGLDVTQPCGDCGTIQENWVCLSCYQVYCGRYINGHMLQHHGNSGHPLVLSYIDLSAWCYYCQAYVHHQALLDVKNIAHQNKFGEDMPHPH

[2] = molecular target: T2, HDAC8 (Homo sapiens, UniProt Q9BY41); test: HDAC8 (FDL) Fluor de Lys assay; format: biochemical; set-up: obtained from C; Romier (academic laboratory, not a vendor); conditions: for inhibition at 1 µM / inhibition at 10 µM: read-out: HDAC8 (FDL) percent enzyme inhibition
T2 sequence (Q9BY41 1-377): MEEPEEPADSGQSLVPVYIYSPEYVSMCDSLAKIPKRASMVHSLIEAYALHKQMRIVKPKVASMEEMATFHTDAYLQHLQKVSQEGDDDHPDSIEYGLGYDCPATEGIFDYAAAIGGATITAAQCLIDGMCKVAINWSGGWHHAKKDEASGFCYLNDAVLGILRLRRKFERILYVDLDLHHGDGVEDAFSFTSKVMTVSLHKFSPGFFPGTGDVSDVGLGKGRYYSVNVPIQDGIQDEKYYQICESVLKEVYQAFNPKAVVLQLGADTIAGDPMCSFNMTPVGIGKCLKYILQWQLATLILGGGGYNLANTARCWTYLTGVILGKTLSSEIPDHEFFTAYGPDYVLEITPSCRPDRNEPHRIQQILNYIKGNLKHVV

[3] = molecular target: T3, HDAC1 (Homo sapiens, UniProt Q13547); test: HDAC1 (ZMAL) fluorogenic activity assay; format: biochemical; conditions: read-out: HDAC1 (ZMAL) percent enzyme inhibition
T3 construct: purchased BPS Bioscience 50051
T3 sequence (Q13547 whole entry): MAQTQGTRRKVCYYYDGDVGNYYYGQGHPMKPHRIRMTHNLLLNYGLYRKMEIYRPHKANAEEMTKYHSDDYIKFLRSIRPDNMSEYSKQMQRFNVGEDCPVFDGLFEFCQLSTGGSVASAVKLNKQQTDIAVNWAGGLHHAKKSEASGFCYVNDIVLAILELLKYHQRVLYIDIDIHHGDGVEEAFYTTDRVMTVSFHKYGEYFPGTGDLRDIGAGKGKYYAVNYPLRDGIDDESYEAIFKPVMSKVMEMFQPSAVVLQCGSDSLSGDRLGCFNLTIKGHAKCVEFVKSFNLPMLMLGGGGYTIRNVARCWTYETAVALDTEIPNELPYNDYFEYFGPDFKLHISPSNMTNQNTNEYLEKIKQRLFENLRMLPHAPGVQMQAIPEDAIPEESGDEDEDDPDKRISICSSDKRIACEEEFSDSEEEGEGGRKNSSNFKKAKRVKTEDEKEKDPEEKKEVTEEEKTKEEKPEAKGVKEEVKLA

[4] = molecular target: T4, zebrafish HDAC10 (Danio rerio, UniProt F1QCV2); test: Zebrafish HDAC10 assay (zHDAC10), Ac-spermidine-AMC substrate; format: biochemical; conditions: for inhibition at 0.1 µM / inhibition at 1 µM / inhibition at 10 µM: read-out: zHDAC10 percent enzyme inhibition
T4 sequence (F1QCV2 1-675): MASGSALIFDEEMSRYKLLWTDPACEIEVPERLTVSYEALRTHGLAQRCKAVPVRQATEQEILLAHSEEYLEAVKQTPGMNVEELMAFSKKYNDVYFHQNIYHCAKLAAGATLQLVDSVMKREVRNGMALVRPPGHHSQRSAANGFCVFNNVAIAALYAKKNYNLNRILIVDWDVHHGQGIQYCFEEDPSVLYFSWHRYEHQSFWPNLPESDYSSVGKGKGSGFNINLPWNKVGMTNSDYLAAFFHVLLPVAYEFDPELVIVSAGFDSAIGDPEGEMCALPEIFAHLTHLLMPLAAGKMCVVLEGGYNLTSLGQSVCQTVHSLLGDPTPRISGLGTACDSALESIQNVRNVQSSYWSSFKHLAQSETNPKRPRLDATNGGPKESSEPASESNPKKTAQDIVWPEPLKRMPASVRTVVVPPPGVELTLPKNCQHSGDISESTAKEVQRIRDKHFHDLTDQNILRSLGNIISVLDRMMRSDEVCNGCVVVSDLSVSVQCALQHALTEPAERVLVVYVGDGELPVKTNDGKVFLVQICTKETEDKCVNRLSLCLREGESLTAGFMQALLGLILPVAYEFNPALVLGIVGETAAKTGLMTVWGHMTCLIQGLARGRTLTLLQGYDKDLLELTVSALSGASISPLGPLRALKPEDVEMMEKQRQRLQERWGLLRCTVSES

[5] = molecular target: T5, HDAC10-nanoluciferase fusion in HeLa cells (Homo sapiens, UniProt Q969S8); test: BRET intracellular target engagement assay, HDAC10
T5 sequence (Q969S8 1-669): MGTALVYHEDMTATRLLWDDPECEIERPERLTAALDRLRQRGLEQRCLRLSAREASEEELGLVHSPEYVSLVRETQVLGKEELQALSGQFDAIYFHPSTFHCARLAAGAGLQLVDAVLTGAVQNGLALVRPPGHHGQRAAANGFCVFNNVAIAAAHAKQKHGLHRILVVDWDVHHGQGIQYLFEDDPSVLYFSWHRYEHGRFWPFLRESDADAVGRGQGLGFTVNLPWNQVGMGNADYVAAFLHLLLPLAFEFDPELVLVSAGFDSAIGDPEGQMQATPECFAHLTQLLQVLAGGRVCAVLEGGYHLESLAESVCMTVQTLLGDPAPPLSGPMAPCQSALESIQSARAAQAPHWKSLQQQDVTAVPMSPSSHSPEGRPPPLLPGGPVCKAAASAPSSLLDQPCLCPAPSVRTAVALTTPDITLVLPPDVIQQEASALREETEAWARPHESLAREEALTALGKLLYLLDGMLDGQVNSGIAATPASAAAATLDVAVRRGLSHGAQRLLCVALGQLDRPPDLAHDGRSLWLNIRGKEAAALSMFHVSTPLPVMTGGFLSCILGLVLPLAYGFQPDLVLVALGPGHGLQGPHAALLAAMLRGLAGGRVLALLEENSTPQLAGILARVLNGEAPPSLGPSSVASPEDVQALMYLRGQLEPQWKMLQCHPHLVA

[6] = molecular target: T1, HDAC6; test: HDAC-Glo I/II assay, HDAC6; format: biochemical; conditions: recombinant human HDAC6, HDAC-Glo; read-out: pIC50 HDAC6 Glo (converted)
[7] = molecular target: T3, HDAC1; test: HDAC-Glo I/II assay, HDAC1; format: biochemical; conditions: recombinant human HDAC1, HDAC-Glo; read-out: pIC50 HDAC1 Glo (converted)
[8] = molecular target: T2, HDAC8; test: HDAC-Glo I/II assay, HDAC8; format: biochemical; set-up: purchased BPS Bioscience 50008; conditions: recombinant human HDAC8, HDAC-Glo; read-out: pIC50 HDAC8 Glo (converted)
[9] = molecular target: T6, HDAC2 (Homo sapiens, UniProt Q92769); test: HDAC-Glo I/II assay, HDAC2; format: biochemical; conditions: recombinant human HDAC2, HDAC-Glo; read-out: pIC50 HDAC2 Glo (converted)
T6 construct: purchased BPS Bioscience 50002
T6 sequence (Q92769 whole entry): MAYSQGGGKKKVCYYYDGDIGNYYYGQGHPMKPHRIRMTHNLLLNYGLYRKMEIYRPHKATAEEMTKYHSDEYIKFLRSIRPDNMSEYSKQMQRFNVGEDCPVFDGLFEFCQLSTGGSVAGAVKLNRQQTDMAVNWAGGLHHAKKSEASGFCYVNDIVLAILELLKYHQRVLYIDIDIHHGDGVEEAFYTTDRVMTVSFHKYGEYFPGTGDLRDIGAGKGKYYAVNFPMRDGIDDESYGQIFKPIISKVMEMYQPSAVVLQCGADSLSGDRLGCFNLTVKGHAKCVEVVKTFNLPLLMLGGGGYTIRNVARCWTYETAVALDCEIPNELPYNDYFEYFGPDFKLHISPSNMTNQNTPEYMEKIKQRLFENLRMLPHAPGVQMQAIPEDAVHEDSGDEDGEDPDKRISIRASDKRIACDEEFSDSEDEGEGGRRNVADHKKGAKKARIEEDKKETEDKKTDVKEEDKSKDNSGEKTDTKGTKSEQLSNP

[10] = molecular target: T7, HDAC3/NcoR2 complex (Homo sapiens, UniProt O15379); test: HDAC-Glo I/II assay, HDAC3/NcoR2 complex; format: biochemical; conditions: recombinant human HDAC3/NcoR2 complex, read-out: pIC50 HDAC3 Glo (converted)
T7 construct: purchased BPS Bioscience 50003
T7 sequence (O15379 whole entry): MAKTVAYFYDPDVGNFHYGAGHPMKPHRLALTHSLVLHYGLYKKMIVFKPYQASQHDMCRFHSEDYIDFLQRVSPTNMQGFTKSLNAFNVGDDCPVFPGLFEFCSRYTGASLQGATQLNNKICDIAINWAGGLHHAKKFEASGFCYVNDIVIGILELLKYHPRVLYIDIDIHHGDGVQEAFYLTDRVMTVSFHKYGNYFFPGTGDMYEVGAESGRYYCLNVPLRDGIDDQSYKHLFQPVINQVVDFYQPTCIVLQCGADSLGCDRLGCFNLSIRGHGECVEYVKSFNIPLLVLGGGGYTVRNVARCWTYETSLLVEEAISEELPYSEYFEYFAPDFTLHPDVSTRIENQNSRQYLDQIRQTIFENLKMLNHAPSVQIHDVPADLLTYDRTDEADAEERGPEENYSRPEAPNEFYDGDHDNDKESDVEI
T7 sequence (Q9Y618 395-489 partner limits assumed): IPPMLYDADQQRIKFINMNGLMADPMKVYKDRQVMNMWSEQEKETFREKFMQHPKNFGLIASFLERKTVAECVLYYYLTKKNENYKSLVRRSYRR

[11] = molecular target: T8, TwinStrep-GST-HDAC10 (Homo sapiens, UniProt Q969S8); test: HDAC10 TR-FRET assay (Tubastatin-AF647-Tracer displacement); format: binding
T8 construct: made in house; host or cells: Sf21 insect cells (baculovirus, pFastBac1)
T8 sequence (Q969S8 1-669): T5 sequence (Q969S8 1-669)

[12] = TR-FRET, 60 min at rt, read-out: pIC50 HDAC10 FRET (converted)
[13] = two separate measurements, each made in triplicate, read-out: HDAC10 FRET IC50

inhibition at 1 µM [3] | inhibition at 10 µM [3] | IC50 [6] | IC50 [7] | IC50 [8] | IC50 [9] | IC50 [10] | IC50 [11, 12] | inhibition at 1 µM [1] | inhibition at 10 µM [1] | inhibition at 1 µM [2] | inhibition at 10 µM [2] | inhibition at 0.1 µM [4] | inhibition at 1 µM [4] | inhibition at 10 µM [4] | IC50 [11, 13] | SMILES | further results
– | – | 1000 nM | 10000 nM | 5010 nM | 25100 nM | > 100000 nM | 6.31 nM | – | – | – | – | – | – | – | – | CN(CCCC(=O)NO)CCc1nc2ccccc2[nH]1 [DKFZ-773, 4-((2-(Benzimidazol-2-yl)ethyl)(methyl)amino)-N-hydroxybutanamide] | IC50 [5]: 126 nM; HDAC10/6 fold selectivity (BRET) ([5]; HDAC10 over HDAC6, from BRET): 315 fold
– | – | 3160 nM | 10000 nM | 2510 nM | > 100000 nM | > 100000 nM | 79.4 nM | – | – | – | – | – | – | – | – | Cc1[nH]c2ccccc2c1CC(=O)NCCN(C)CCCC(=O)NO [DKFZ-749, N-Hydroxy-4-(methyl(2-(2-(2-methyl-1H-indol-3-yl)acetamido)ethyl)amino)butanamide] | –
– | – | 3980 nM | 15800 nM | 20000 nM | > 100000 nM | > 100000 nM | 15.8 nM | – | – | – | – | – | – | – | – | CN(CCCC(=O)NO)CCNC(=O)c1ccc(N)cc1 [DKFZ-752, 4-Amino-N-(2-((4-(hydroxyamino)-4-oxobutyl)(methyl)amino)ethyl)benzamide] | –

The remaining lines, values behind:

SMILES | inhibition at 1 µM [3] | inhibition at 10 µM [3] | IC50 [6] | IC50 [7] | IC50 [8] | IC50 [9] | IC50 [10] | IC50 [11, 12] | inhibition at 1 µM [1] | inhibition at 10 µM [1] | inhibition at 1 µM [2] | inhibition at 10 µM [2] | inhibition at 0.1 µM [4] | inhibition at 1 µM [4] | inhibition at 10 µM [4] | IC50 [11, 13] | further results
O=C(NO)C1CCN(CCNCc2ccc(Br)cc2)CC1 [DH88, 1-(2-((4-Bromobenzyl)amino)ethyl)-N-hydroxypiperidine-4-carboxamide] | -8% | 10% | – | – | – | – | – | – | – | – | – | – | – | – | – | – | IC50 [1]: 15000 ± 4000 nM; IC50 [2]: 700 ± 50 nM; IC50 [4]: 37 ± 4 nM
O=C(NO)C1CCN(Cc2ccc(-c3ccccc3)cc2)CC1 [DH35, 1-([1,1′-Biphenyl]-4-ylmethyl)-N-hydroxypiperidine-4-carboxamide] | 5% | 35% | – | – | – | – | – | – | 11% | 57% | 37% | 70% | 7% | 24% | 69% | 1780 nM and 2560 nM | –
O=C(NO)C1CCN(CCNCc2ccccc2)CC1 [DH79, 1-(2-(Benzylamino)ethyl)-N-hydroxypiperidine-4-carboxamide] | 6% | 20% | – | – | – | – | – | – | -15% | 0% | – | – | – | – | – | – | IC50 [2]: 2000 ± 300 nM; IC50 [4]: 64 ± 6 nM
O=C(NO)C1CCN(CCc2ccccc2)CC1 [DH22, N-Hydroxy-1-phenethylpiperidine-4-carboxamide] | -1% | 7% | – | – | – | – | – | – | -2% | 17% | 27% | 56% | 13% | 20% | 80% | 175 nM and 260 nM | –
O=C(NO)C1CCN(Cc2ccccc2)CC1 [DH25, 1-Benzyl-N-hydroxypiperidine-4-carboxamide] | 8% | 18% | – | – | – | – | – | – | 22% | 46% | 36% | 61% | 9% | 15% | 50% | 2450 nM and 3430 nM | –
O=C(NO)C1CCN(CCCc2ccccc2)CC1 [DH53, N-Hydroxy-1-(3-phenylpropyl)-piperidine-4-carboxamide] | 2% | 29% | – | – | – | – | – | – | -23% | -3% | 20% | 48% | 0% | 19% | 68% | – | –
